The IC50 is the midpoint of a concentration-inhibition curve. As usually defined, the EC50 is the concentration needed to bring the measured effect to its halfway point.

In experiment [1] the target is T1, HCV NS5B RdRp genotype 1b (Hepatitis C virus genotype 1b, UniProt P26663).
T1 construct: The protein was expressed with an 18 amino acid C-terminal truncation to enhance the solubility; made in house; host or cells: E. coli BL21(DE3), pET21a
Description: Modified HCV NS5B RdRp enzyme assay (preincubation protocol). The class given is biochemical. As to the method: HCV NS5B RdRp cloning, expression, and purification. The cDNA encoding the NS5B protein of HCV, genotype 1b, was cloned into the pET21a expression vector. The protein was expressed with an 18 amino acid C-terminal truncation to enhance the solubility. The E. coli competent cell line BL21(DE3) was used for expression of the protein. Cultures were grown at 37° C. for ˜4 hours until the cultures reached an optical density of 2.0 at 600 nm. The cultures were cooled to 20° C. and induced with 1 mM IPTG. Fresh ampicillin was added to a final concentration of 50 μg/ml and the cells were grown overnight at 20° C.
Cell pellets (3 L) were lysed for purification to yield 15-24 […] of purified NS5B. The lysis buffer consisted of 20 mM Tris-HCl, pH 7.4, 500 mM NaCl, 0.5% triton X-100, 1 mM DTT, 1 mM EDTA, 20% glycerol, 0.5 mg/ml lysozyme, 10 mM MgCl2, 15 ug/ml deoxyribonuclease I, and Complete™ protease inhibitor tablets (Roche). After addition of the lysis buffer, frozen cell pellets were resuspended using a tissue homogenizer. To reduce the viscosity of the sample, aliquots of the lysate were sonicated on ice using a microtip attached to a Branson sonicator. The sonicated lysate was centrifuged at 100,000×g for 1 hr at 4° C. and filtered through a 0.2 μm filter unit (Corning).
The protein was purified using three sequential chromatography steps: Heparin sepharose CL-6B, polyU sepharose 4B, and Hitrap SP sepharose (Pharmacia). The chromatography buffers were identical to the lysis buffer but contained no lysozyme, deoxyribonuclease I, MgCl2 or protease inhibitor and the NaCl concentration of the buffer was adjusted according to the requirements for charging the protein onto the column. Each column was eluted with a NaCl gradient which varied in length from 5-50 column volumes depending on the column type. After the final chromatography step, the resulting purity of the enzyme is >90% based on SDS-PAGE analysis. The enzyme was aliquoted and stored at −80° C.
Standard HCV NS5B RdRp enzyme assay. HCV RdRp genotype 1b assays were run in a final volume of 60 μl in 96 well plates (Costar 3912). The assay buffer is composed of 20 mM Hepes, pH 7.5, 2.5 mM KCl, 2.5 mM MgCl2, 1 mM DTT, 1.6 U RNAse inhibitor (Promega N2515), 0.1 mg/ml BSA (Promega R3961), and 2% glycerol. All compounds were serially diluted (3-fold) in DMSO and diluted further in water such that the final concentration of DMSO in the assay was 2%. HCV RdRp genotype 1b enzyme was used at a final concentration of 28 nM. A polyA template was used at 6 nM, and a biotinylated oligo-dT12 primer was used at 180 nM final concentration. Template was obtained commercially (Amersham 27-4110). Biotinylated primer was prepared by Sigma Genosys. 3H-UTP was used at 0.6 μCi (0.29 μM total UTP). Reactions were initiated by the addition of enzyme, incubated at 30° C. for 60 min, and stopped by adding 25 μl of 50 mM EDTA containing SPA beads (4 μg/μl, Amersham RPNQ 0007). Plates were read on a Packard Top Count NXT after >1 hr incubation at room temperature.
Modified HCV NS5B RdRp enzyme assay. A modified enzyme assay was performed essentially as described for the standard enzyme assay except for the following: The biotinylated oligo dT12 primer was precaptured on streptavidin-coated SPA beads by mixing primer and beads in assay buffer and incubating at room temperature for one hour. Unbound primer was removed after centrifugation. The primer-bound beads were resuspended in 20 mM Hepes buffer, pH 7.5 and used in the assay at final concentrations of 20 nM primer and 0.67 μg/μl beads. Order of addition in the assay: enzyme (14 nM) was added to diluted compound followed by the addition of a mixture of template (0.2 nM), 3H-UTP (0.6 μCi, 0.29 μM), and primer-bound beads, to initiate the reaction; concentrations given are final. Reactions were allowed to proceed for 4 hours at 30° C.
IC50 values for compounds were determined using seven different. […]

The subject of the next experiment is HCV replicon cells. Description: HCV replicon FRET assay. In kind it is cell-based. As to conditions: Hepatitis C virus. From the text: FRET Assay Preparation. To perform the HCV FRET screening assay, 96-well cell culture plates were used. The FRET peptide (Anaspec, Inc.) (Taliani et al., Anal. Biochem. 1996, 240, 60-67) contains a fluorescence donor, EDANS, near one end of the peptide and an acceptor, DABCYL, near the other end. The fluorescence of the peptide is quenched by […] resonance energy transfer (RET) between the donor and the acceptor, but as the NS3 protease cleaves the peptide the products are released from RET quenching and the fluorescence of the donor becomes apparent. The assay reagent was made as follows: 5× cell Luciferase cell culture lysis reagent from Promega (#E153A) diluted to 1× with dH2O, NaCl added to 150 mM final, the FRET peptide diluted to 20 uM final from a 2 mM stock.
To prepare plates, HCV replicon cells, with or without a Renilla luciferase reporter gene, were trypsinized and placed into each well of a 96-well plate with titrated test compounds added in columns 3 through 12; columns 1 and 2 contained a control compound (HCV protease inhibitor), and the bottom row contained cells without compound. The plates were then placed in a CO2 incubator at 37° C.
Assays. Subsequent to addition of the test compounds described above (FRET Assay Preparation), at various times the plate was removed and Alamar blue solution (Trek Diagnostics, #00-100) was added per well as a measure of cellular toxicity, After reading in a Cytoflour 4000 instrument (PE Biosystems), plates were rinsed with PBS and then used for FRET assay by the addition of 30 ul of the FRET peptide assay reagent described above (FRET Assay Preparation) per well. The plate was then placed into the Cytoflour 4000 instrument which had been set to 340 excite/490 emission, automatic mode for 20 cycles and the plate read in a kinetic mode. Typically, the signal to noise using an endpoint analysis after the reads was at least three-fold. Alternatively, after Alamar blue reading, plates were rinsed with PBS, 50 ul of DMEM (high glucose) without phenol red was added and plates were then used for luciferase assay using the Promega Dual-Glo Luciferase Assay System.
Compound analysis was determined by quantification of the relative HCV replicon inhibition and the relative cytotoxicity values. To calculate cytoxicity values, the average Alamar Blue fluorescence signals from the control wells were set as 100% non-toxic. The individual signals in each of the compound test wells were then divided by the average control signal and multiplied by 100% to determine […]. To calculate the HCV replicon inhibition values, an average background value was obtained from the two wells containing the highest amount of HCV protease inhibitor at the end of the assay period. These numbers were similar to those obtained from naive Huh-7 cells.
The background numbers were then subtracted from the average signal obtained from the control wells and this number was used as 100% activity. The individual signals in each of the compound test wells were then divided by the averaged control values after background subtraction and multiplied by 100% to determine percent activity. EC50 values for a protease inhibitor titration were calculated as the concentration which caused a 50% reduction in FRET or luciferase activity. The two numbers generated for the compound plate, percent cytoxicity and percent activity were used to determine compounds of interest for further analysis.
On the technique in general: In antiviral work, replicon cells carry a viral genome segment that copies itself.

Setting [2] is: HCV NS5B RdRp genotype 1b, preincubation protocol, read-out: IC50.
Setting [3] is: HCV replicon cells, FRET assay, read-out: EC50.

Structures are written as SMILES. Where two headings read alike, the source gives them in different places.

T1 sequence (P26663 2420-2992): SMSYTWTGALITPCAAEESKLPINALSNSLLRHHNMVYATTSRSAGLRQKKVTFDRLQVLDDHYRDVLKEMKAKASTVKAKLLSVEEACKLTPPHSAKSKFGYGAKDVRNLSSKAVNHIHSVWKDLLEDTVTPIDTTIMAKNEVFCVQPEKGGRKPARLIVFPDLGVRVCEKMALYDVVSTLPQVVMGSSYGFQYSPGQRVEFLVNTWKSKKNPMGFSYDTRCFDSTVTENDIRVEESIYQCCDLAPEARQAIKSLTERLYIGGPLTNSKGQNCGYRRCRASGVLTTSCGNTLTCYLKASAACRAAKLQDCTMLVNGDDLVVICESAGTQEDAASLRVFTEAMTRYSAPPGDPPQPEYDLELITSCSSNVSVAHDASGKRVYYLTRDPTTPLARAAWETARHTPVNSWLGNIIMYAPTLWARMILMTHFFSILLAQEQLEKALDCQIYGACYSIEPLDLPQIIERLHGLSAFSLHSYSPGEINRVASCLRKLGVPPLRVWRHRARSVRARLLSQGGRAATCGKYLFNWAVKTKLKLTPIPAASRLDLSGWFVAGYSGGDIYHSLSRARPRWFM

On to `COc1ccc2c(c1)[C@@H]1OC(C)(C)O[C@]1(C(=O)N(C)CCN(C)C)Cn1c-2c(C2CCCCC2)c2ccc(C(=O)NS(=O)(=O)N(C)C)cc21` (racemic) [Example 1, rac-(3aR,14bS)-10-Cyclohexyl-N^3a-(2-(dimethylamino)ethyl)-N^7-((dimethylamino)sulfonyl)-N^3a,2,2-trimethyl-13-(methyloxy)-4H-[1,3]dioxolo[4,5-d]indolo[2,1-a][2]benzazepine-3a,7(14bH)-dicarboxamide], for which, in experiment [1] (setting [2]), the IC50 was determined as 170 nM. The EC50 in the experiment on HCV replicon cells (setting [3]) stood at 130 nM.

As to `COc1ccc2c(c1)[C@@H]1OC(=O)O[C@]1(C(=O)N1C[C@@H](C)O[C@@H](C)C1)Cn1c-2c(C2CCCCC2)c2ccc(C(=O)NS(=O)(=O)N(C)C)cc21` (racemic) [Example 2, rac-(3aR,14bS)-10-Cyclohexyl-N-((dimethylamino)sulfonyl)-3a4(2R,6S)-2,6-dimethyl-4-morpholinyl)carbonyl)-13-(methyloxy)-2-oxo-3a,14b-dihydro-4H-[1,3]diaxolo[4,5-d]indolo[2,1-a][2]benzazepine-7-carboxamide], the IC50 in experiment [1] (setting [2]) is 33 nM. Further, the EC50 in the experiment on HCV replicon cells (setting [3]) was 59 nM.

Regarding `COc1ccc2c(c1)[C@@H]1OC(=O)O[C@]1(C(=O)N1C3CCC1CN(C)C3)Cn1c-2c(C2CCCCC2)c2ccc(C(=O)NS(=O)(=O)N(C)C)cc21` (racemic) [Example 4, rac-(3aR,14bS)-10-Cyclohexyl-N-((dimethylamino)sulfonyl)-3a-((3-methyl-3,8-diazabicyclo[3.2.1]oct-8-yl)carbonyl)-13-(methyloxy)-2-oxo-3a,14b-dihydro-4H-[1,3]dioxolo[4,5-d]indolo[2,1-a][2]benzazepine-7-carboxamid], the IC50 in experiment [1] worked out at 91 nM. In the experiment on HCV replicon cells, this compound registered an EC50 of 100 nM.

Take `COc1ccc2c(c1)[C@@H]1OC(C)(C)O[C@]1(C(=O)N1C3CCC1CN(C)C3)Cn1c-2c(C2CCCCC2)c2ccc(C(=O)NS(=O)(=O)N(C)C)cc21` (racemic) [Example 5, rac-(3aR,4bS)-10-Cyclohexyl-N-((dimethylamino)sulfonyl)-2,2-dimethyl-3a-((3-methyl-3,8-diazabicyclo[3.2.1]oct-8-yl)carbonyl)-13-(methyloxy)-3a,14b-dihydro-4H-[1,3]dioxolo[4,5-d]indolo[2,1-a][2]benzazepine-7-carboxamid]: the midpoint of inhibition in experiment [1], the IC50, lay at 590 nM. It took 140 nM to reach a half-maximal effect with HCV replicon cells (EC50).

Compound `COc1ccc2c(c1)[C@@H]1OCO[C@]1(C(=O)N1C3CCC1CN(C)C3)Cn1c-2c(C2CCCCC2)c2ccc(C(=O)NS(=O)(=O)N(C)C)cc21` (racemic) [Example 6, rac-(3aR,14bS)-10-Cyclohexyl-N-((dimethylamino)sulfonyl)-3a-((3-methyl-3,8-diazabicyclo[3.2.1]oct-8-yl)carbonyl)-13-(methyloxy)-3a,14b-dihydro-4H-[1,3]dioxolo[4,5-d]indolo[2,1-a][2]benzazepine-7-carboxamid] came in with an IC50 in experiment [1] of 430 nM. In the experiment on HCV replicon cells, it took 140 nM to reach a half-maximal effect (EC50).

As for `COc1ccc2c(c1)[C@@H]1OC(C)(C)O[C@]1(C(=O)N1C[C@@H](C)O[C@@H](C)C1)Cn1c-2c(C2CCCCC2)c2ccc(C(=O)NS(=O)(=O)N(C)C)cc21` (racemic) [Example 3, rac-(3aR,14bS)-10-Cyclohexyl-N-((dimethylamino)sulfonyl)-3a-(((2R,6S)-2,6-dimethyl-4-morpholinyl)carbonyl)-2,2-dimethyl-13-(methyloxy)-3a,14b-dihydro-4H-[1,3]dioxolo[4,5-d]indolo[2,1-a][2]benzazepine-7-carboxamide], the IC50 in experiment [1] (setting [2]) is 110 nM. The compound further displayed an EC50 with HCV replicon cells of 170 nM.

(Values after US8138171B2, “Dioxolane and dioxolanone fused indolobenzadiazepine HCV NS5B inhibitors” (Bristol-Myers Squibb Company, priority 2008, dated 2012).)
